Measurements from patent publication US4238508A, “Method for analgesia using 3-hydroxyacetanilide” (The Research Foundation of State University of New York, priority 1979, dated 1980).

Experiments:
in vivo = test: in vivo; parameters: species or system white mice; settings: mouse; for survival at 96 h: ip
Method: ^(a) Mortality determined at 96 hours, all drugs given
intraperitoneally dissolved in saline at 42° C.
receiving same mg dose or saline controls and all acetaminophen groups p
<0.005 using chi square test.

liver [1] = test: Gross appearance of livers of mice that died after injection; settings: white mice
Method: Doses of 400, 600 and 900 milligrams per kilogram of 3-hydroxyacetanilide, of acetaminophen and of normal saline control were administered to white mice.

liver glutathione = test: Effect on liver glutathione levels in mice; type: in vivo, mouse; settings: 600 mg/kg i.p.; for Depletion of mouse liver glutathione: two hours; for Liver glutathione level: two hours after injection, saline 8.2 ± 0.9
Method: A number of mice were given doses of acetaminophen and 3-hydroxyacetanilideat levels of 600 mg/kg of body weight and a number of mice were given normal saline as a control. […] All values were determined at two hours after intraperitoneal drug injection.

[2] = tested on: plasma glutamate-pyruvate transaminase (GPT); test: Plasma glutamate-pyruvate transaminase (GPT) activity in mice; type: in vivo; settings: for Effect on transaminase activity: 600 mg/kg acetaminophen, 900 mg/kg 3-hydroxyacetanilide; for Transaminase activity in plasma, Mean ± SD: saline 32 ± 18
Method: (§1) The relative effects of 3-hydroxyacetanilide and acetaminophen were compared on plasma glutamate-pyruvate transaminase (GPT) activity. 600 mg/kg of acetaminophen were used in the test; whereas, a larger quantity, 900 mg/kg, of 3-hydroxyacetanilide was used. […] Activity was measured spectrophotometrically at room temperature using a Sigma® Enzyme Kit. The activity is expressed in micromoles per minute per […] of plasma. The blood for the test was collected in a small amount of heparin. Assays were performed within two hours after obtaining the blood. […] There appears to be a correlation between drug dose, amounts of necrosis seen histologically and elevation of transaminase levels.

[3] = Mouse writhing test with 1% acetic acid; type: in vivo; settings: for Writhes per 5 Minute (SD): 30 minutes prior to test, control 23.2 ± 5.3
Method: To test the effectiveness of 3-hydroxyacetanilide as an analgesic when compared to acetaminophen, a mouse writhing test was used wherein 1% acetic acid is given intraperitoneally 5 minutes prior to counting abdominal writhes made by the animal. The dose of the 1% […] is 0.01 cc/gm of body weight. Prior to counting the writhes, acetaminophen and 3-hydroxyacetanilide were given subcutaneously 30 minutes prior to the test. The control was given normal saline. […] This example therefore illustrates that 3-hydroxyacetanilide is unexpectedly as good an analgesic in this test as acetaminophen and should therefore be used in dosages similar to the dosages known to be effective for actaminophen and since it has almost the same analgesic effect in mice as acetaminophen, it would be expected to have the same analgesic effect as acetaminophen in other mammals.

[4] = tested on: plasma glutamate-pyruvate transaminase (GPT); settings: mice, acetaminophen-induced hepatic injury; cited from earlier work
liver [5] = settings: acetaminophen-induced hepatic injury, mice; cited from earlier work
liver [6] = test: Hepatic necrosis; type: in vivo, mice; settings: compared with acetaminophen
Method: as §1

[7] = British Pat. No. 1,006,558; cited from earlier work
[8] = Roberts and Jollow; cited from earlier work

SMILES: CC(=O)Nc1ccc(O)cc1 [Acetaminophen, 4-hydroxyacetanilide, reference compound]
- survival at 96 h (in vivo; 400 mg/kg): 40%
- survival at 96 h (in vivo; 600 mg/kg): 20%
- survival at 96 h (in vivo; 900 mg/kg): 20%
- Gross appearance of liver in mice which died (liver [1]): large and grossly congested in appearance
- Depletion of mouse liver glutathione (liver glutathione): rapid depletion
- Liver glutathione level (liver glutathione): 2.4 ± 0.6 mg/gram liver
- Effect on transaminase activity [2]: drastically affects the transaminase activity
- Transaminase activity in plasma, Mean ± SD ([2]; 600 mg/kg, n 9): 1834 ± 771 IU/ml Plasma
- Writhes per 5 Minute (SD) ([3]; 200 mg/kg s.c.): 10.0 ± 6.2
- Writhes per 5 Minute (SD) ([3]; 400 mg/kg s.c.): 3.5 ± 4.0
- Reduction of the number of writhes per 5 minutes ([3]; s.c., 200 and 400 mg/kg): effectively reduced the number of writhes per 5 minutes
- Time of maximum plasma transaminase levels after dose [4]: approximately 6 hours
- Hepatic injury, histology (liver [5]): centrilobular necrosis

SMILES: CC(=O)Nc1cccc(O)c1 [3-hydroxyacetanilide]
- Mortality compared with a comparable dose of acetaminophen (in vivo): considerably less mortality
- survival at 96 h (in vivo; 400 mg/kg): 96%
- survival at 96 h (in vivo; 600 mg/kg): 96%
- survival at 96 h (in vivo; 900 mg/kg): 91%
- Gross appearance of liver in mice which died (liver [1]): no significant gross abnormality of the liver
- Depletion of mouse liver glutathione (liver glutathione): much less depletion
- Liver glutathione level (liver glutathione): 6.2 ± 1.2 mg/gram liver
- Effect on transaminase activity [2]: much less effect
- Transaminase activity in plasma, Mean ± SD ([2]; 900 mg/kg, n 17): 23 ± 5 IU/ml Plasma
- Elevation in plasma GPT activity ([2]; 900 mg/kg, up to 48 hours after treatment): No significant elevation
- Hepatic necrosis (liver [6]): did not cause a similar level of hepatic necrosis
- Writhes per 5 Minute (SD) ([3]; 200 mg/kg s.c.): 11.6 ± 8.1
- Writhes per 5 Minute (SD) ([3]; 400 mg/kg s.c.): 1.3 ± 1.4
- Analgesic effect compared with acetaminophen ([3]; s.c., 200 and 400 mg/kg): statistically insignificant differences
- Reduction of the number of writhes per 5 minutes ([3]; s.c., 200 and 400 mg/kg): effectively reduced the number of writhes per 5 minutes
- Anti-pyretic activity [7]: has anti-pyretic activity
- Hepatotoxicity relative to acetaminophen [8]: substantially less hepatotoxic than acetaminophen
